What was measured:
[1] = biological target: T1, Ah receptor (AhR) (Mus musculus, UniProt P30561); test: yAhR nuclear translocation in yAHAYc6 cells, fluorescence microscopy; type: cell-based
T1 sequence (P30561 10-848): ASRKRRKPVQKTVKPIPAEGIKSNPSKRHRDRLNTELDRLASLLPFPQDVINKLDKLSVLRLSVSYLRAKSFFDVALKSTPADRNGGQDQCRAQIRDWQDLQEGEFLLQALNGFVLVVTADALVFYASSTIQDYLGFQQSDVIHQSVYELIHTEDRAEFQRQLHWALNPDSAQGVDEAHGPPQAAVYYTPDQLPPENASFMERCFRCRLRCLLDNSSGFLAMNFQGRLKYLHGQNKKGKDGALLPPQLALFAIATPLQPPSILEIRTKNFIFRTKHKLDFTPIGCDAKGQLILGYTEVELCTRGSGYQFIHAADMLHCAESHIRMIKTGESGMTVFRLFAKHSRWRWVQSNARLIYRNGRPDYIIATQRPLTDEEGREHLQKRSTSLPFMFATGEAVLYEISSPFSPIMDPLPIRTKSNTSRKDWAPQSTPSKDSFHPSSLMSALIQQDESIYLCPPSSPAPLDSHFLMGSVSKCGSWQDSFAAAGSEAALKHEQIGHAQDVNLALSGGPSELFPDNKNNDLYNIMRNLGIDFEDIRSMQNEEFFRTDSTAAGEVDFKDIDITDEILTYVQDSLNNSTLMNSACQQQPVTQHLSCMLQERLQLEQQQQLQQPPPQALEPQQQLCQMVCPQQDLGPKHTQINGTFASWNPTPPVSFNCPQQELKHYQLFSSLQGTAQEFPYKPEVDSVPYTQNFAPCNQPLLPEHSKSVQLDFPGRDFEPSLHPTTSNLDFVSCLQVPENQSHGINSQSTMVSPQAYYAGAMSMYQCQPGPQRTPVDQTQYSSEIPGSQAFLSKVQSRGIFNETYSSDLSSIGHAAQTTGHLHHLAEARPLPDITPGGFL

[2] = biological target: T1, Ah receptor (AhR); test: yAhR nuclear translocation in yAHAYc6 cells; type: cell-based

Row | Compound | yAhR nuclear translocation in yAHAYc6 cells, fluorescence microscopy [1] | EC50 [2]
1 | Cc1ccc2cc3c(ccc4ccccc43)c3c2c1CC3 [3-methylcholanthrene] | known AhR agonists (TCDD, DBA, PCB77, indirubin, 3MC and BNF | –
2 | Clc1ccc(-c2ccc(Cl)c(Cl)c2)cc1Cl [PCB77, 3,3’,4,4’-Tetrachlorobiphenyl] | known AhR agonists (TCDD, DBA, PCB77, indirubin, 3MC and BNF | –
3 | Clc1cc2c(cc1Cl)Oc1cc(Cl)c(Cl)cc1O2 [TCDD, 2,3,7,8-tetrachlorodibenzo-p-dioxin] | – | 200 pM
4 | c1ccc2c(c1)ccc1cc3c(ccc4ccccc43)cc12 [dibenz(a,h)anthracene] | known AhR agonists (TCDD, DBA, PCB77, indirubin, 3MC and BNF | –
5 | O=C1Nc2ccccc2/C1=C1/Nc2ccccc2C1=O [indirubin] | known AhR agonists (TCDD, DBA, PCB77, indirubin, 3MC and BNF | –

Source: publication PMC7260106 (Toxicology in vitro : an international journal published in …, 2020)
